The results in this text go back to US20230031406A1, “COMPOUNDS AND COMPOSITIONS FOR TREATING CONDITIONS ASSOCIATED WITH NLRP ACTIVITY” (Novartis AG, priority 2018, published 2023).

Like-named read-outs stand apart in the source and are kept apart here.

Usually IC50 stands for the concentration needed to halve the response being measured.

In this test the test system is PMA-differentiated THP-1 cells. In words: IL-1β production in PMA-differentiated THP-1 cells stimulated with gramicidin (hTHP-1 assay containing 2% fetal bovine serum; Procedures 1 and 2). The test is classed as cell-based, human. As to conditions: 2% fetal bovine serum. A digest of the protocol:
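PMA 20 ng/ml 16-18 h → trypsinise → 50,000 cells/well, RPMI/2% FBS; cpd 1 h (11-pt, 100–0.0017 μM; DMSO 0.37%); gramicidin 5 μM, 2 h; spin; supernatant IL-1β via HTRF.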

Where [1] appears, read: Table B1, class symbols, read-out: Average IC50 of compounds in hTHP-1 assay: hTHP-1 IC50.
Setting [2] is: Homo sapiens, THP-1, Table B3, hTHP-1 assay, class symbols, read-out: IC50.
[3] abbreviates: Table B3, hTHP-1 assay, class symbols, read-out: IC50.
[4] abbreviates: Homo sapiens, THP-1, Table B2, class symbols, read-out: hTHP-1 IC50.
Where [5] appears, read: Table B2, class symbols, read-out: hTHP-1 IC50.
The mark [6] stands for this setting: Homo sapiens, THP-1, Table B1, class symbols, read-out: Average IC50 of compounds in hTHP-1 assay: hTHP-1 IC50.
Setting [7] is: Homo sapiens, THP-1, Table B1, numeric bounds, read-out: Average IC50 of compounds in hTHP-1 assay: hTHP-1 IC50.

As to `Cc1c(C2CC2)nc2c(c1NC(=O)N=S(N)(=O)c1cnc(C(C)(C)O)s1)CCC2` (single isomer, unassigned) [Compound 124a, (S) or (R)-N′-((2-cyclopropyl-3-methyl-6,7-dihydro-5H-cyclopenta[b]pyridin-4-yl)carbamoyl)-2-(2-hydroxypropan-2-yl)thiazole-5-sulfonimidamide], under setting [1], the IC50 is 5 to 30 µM. In the case of `CC(C)(O)c1ncc(S(N)(=O)=NC(=O)Nc2c3c(nc4c2CCC4=O)CCC3)s1` (stereo not drawn) [compound 593, 2-(2-Hydroxypropan-2-yl)-N′-((3-oxo-1,2,3,5,6,7-hexahydrodicyclopenta[b,e]pyridin-8-yl)carbamoyl)thiazole-5-sulfonimidamide], the IC50 (Homo sapiens, THP-1, Table B3, hTHP-1 assay, numeric values, read-out: IC50) was over 30 µM.

In the case of `Cc1c(C2(F)CC2)nc2c(c1NC(=O)N=S(N)(=O)c1sc(C(C)(C)O)cc1F)CCC2` (stereo not drawn) [Example 612, 3-Fluoro-N′-((2-(1-fluorocyclopropyl)-3-methyl-6,7-dihydro-5H-cyclopenta[b]pyridin-4-yl)carbamoyl)-5-(2-hydroxypropan-2-yl)thiophene-2-sulfonimidamide], under setting [2], the IC50 is 1 to 5 µM.

Consider `CCn1cc(F)c(S(N)(=O)=NC(=O)Nc2c(C)c(C3CC3)nc3c2CCC3)n1` (single isomer, unassigned) [Example 713, (R) or (S)-N′-((2-cyclopropyl-3-methyl-6,7-dihydro-5H-cyclopenta[b]pyridin-4-yl)carbamoyl)-1-ethyl-4-fluoro-1H-pyrazole-3-sulfonimidamide], for which the IC50 under setting [3] lay in the range of 0.04 to 0.2 µM. `CC(C)(O)c1cc(C#N)cc(S(N)(=O)=NC(=O)Nc2c3c(nc4c2CCC4(C)C)CCC3)c1` (stereo not drawn) [Compound 674, 3-Cyano-N′-((3,3-dimethyl-1,2,3,5,6,7-hexahydrodicyclopenta[b,e]pyridin-8-yl)carbamoyl)-5-(2-hydroxypropan-2-yl)benzenesulfonimidamide]: under setting [4], the IC50 was 1 to 5 µM. As for `CC(C)n1nc(S(N)(=O)=NC(=O)Nc2c3c(nc4c2CCC4(C)C)CCC3)cc1C(C)(C)O` (single isomer, unassigned) [Compound 615b, (R) or (S)-N′-((3,3-dimethyl-1,2,3,5,6,7-hexahydrodicyclopenta [b,e]pyridin-8-yl)carbamoyl)-5-(2-hydroxypropan-2-yl)-1-isopropyl-1H-pyrazole-3-sulfonimidamide], under setting [4], the IC50 was in the range of 1 to 5 µM.

`Cc1c(C2CC2)nc2c(c1NC(=O)N=S(N)(=O)c1cnn3c1OCCC3)CCC2` (single isomer, unassigned) [Compound 306a, (S) or (R)-N′-((2-cyclopropyl-3-methyl-6,7-dihydro-5H-cyclopenta[b]pyridin-4-yl)carbamoyl)-6,7-dihydro-5H-pyrazolo[5,1-b] [1,3]oxazine-3-sulfonimidamide]: the IC50 under setting [5] lay in the range of 5 to 30 µM.

As to `Cc1c(C2CC2)nc2c(c1NC(=O)N=S(N)(=O)c1sc(C(C)(C)O)cc1F)CCC2` (single isomer, unassigned) [Compound 174b, (S) or (R)-N′-((2-cyclopropyl-3-methyl-6,7-dihydro-5H-cyclopenta[b]pyridin-4-yl)carbamoyl)-3-fluoro-5-(2-hydroxypropan-2-yl)thiophene-2-sulfonimidamide], the IC50 under setting [1] lay in the range of 0.04 to 0.2 µM.

As to `CCn1ccc(S(N)(=O)=NC(=O)Nc2c3c(nc4c2CCC4(C)C)CCC3)n1` (single isomer, unassigned) [Compound 697b, (R) or (S)-N′-((3,3-dimethyl-1,2,3,5,6,7-hexahydrodicyclopenta [b,e]pyridin-8-yl)carbamoyl)-1-ethyl-1H-pyrazole-3-sulfonimidamide], the IC50 under setting [5] is 0.04 to 0.2 µM.

For the molecule `CC1CCc2c1nc1c(c2NC(=O)N=S(N)(=O)c2cn(C(C)C)cn2)CCC1` (single isomer, unassigned) [Compound 660d, (R, R) or (S, R) or (R, S) or (S, S)-1-isopropyl-N′-((3-methyl-1,2,3,5,6,7-hexahydrodicyclopenta [b,e]pyridin-8-yl)carbamoyl)-1H-imidazole-4-sulfonimidamide], the IC50 under setting [4] was in the range of 5 to 30 µM. In the case of `CC(C)(O)c1nc(S(N)(=O)=NC(=O)Nc2c3c(nc4c2CCC4)CCC3)cs1` (single isomer, unassigned) [Compound 154a, (R) or (S)-N′-((1,2,3,5,6,7-hexahydrodicyclo-penta[b,e]pyridin-8-yl)carbamoyl)-2-(2-hydroxypropan-2-yl)thiazole-4-sulfonimidamide], the IC50 under setting [6] lay within 1 to 5 µM. On to `CC(C)(O)c1ncc(S(=N)(=O)NC(=O)Nc2c3c(nc4c2CCC4)CCC3)s1` (stereo not drawn) [Compound 128, N-((1,2,3,5,6,7-hexahydrodicyclopenta[b,e]pyridin-8-yl)carbamoyl)-2-(2-hydroxypropan-2-yl)thiazole-5-sulfonimidamide], for which the IC50 under setting [6] is 0.2 to 1 µM.

Take `CCc1cc(F)c(S(N)(=O)=NC(=O)Nc2c3c(nc4c2CC[C@H]4C)CCC3)s1` (stereo partly drawn) [Compound 720c]: the IC50 under setting [4] was 0.2 to 1 µM. Take `CCc1c(C(F)(F)F)nc2c(c1NC(=O)N=S(N)(=O)c1nn(C(F)F)cc1F)CCC2` (stereo not drawn) [Example 572, 1-(Difluoromethyl)-N′-((3-ethyl-2-(trifluoromethyl)-6,7-dihydro-5H-cyclopenta[b]pyridin-4-yl)calbamoyl)-4-fluoro-1H-pyrazole-3-sulfonimidamide]: the IC50 under setting [2] was 1 to 5 µM. Take `CCc1c(C(F)(F)F)nc2c(c1NC(=O)N=S(N)(=O)c1nn(CC)cc1F)CCC2` (stereo not drawn) [Example 743, 1-Ethyl-N′-((3-ethyl-2-(trifluoromethyl)-6,7-dihydro-5H-cyclopenta[b]pyridin-4-yl)carbamoyl)-4-fluoro-1H-pyrazole-3-sulfonimidamide]: the IC50 (Homo sapiens, THP-1, Table B4, class symbols, read-out: hTHP-1 IC50) is 1 to 5 µM. Consider `CC1CCc2c1nc1c(c2NC(=O)N=S(N)(=O)c2ccn(C(C)C)n2)CCC1` (single isomer, unassigned) [Compound 129ab, (S,S) or (S,R)-1-isopropyl-N′-((3-methyl-1,2,3,5,6,7-hexa-hydrodicyclo-penta[b,e]pyridin-8-yl)carbamoyl)-1H-pyrazole-3-sulfonimidamide], for which the IC50 under setting [7] was over 30 µM. As for `CC(C)c1ncc(F)c(C(C)C)c1NC(=O)N=S(N)(=O)c1cnc(C(C)(C)O)s1` (single isomer, unassigned) [Compound 164a, (R) or (S)-N′-((5-fluoro-2,4-diisopropylpyridin-3-yl)carbamoyl)-2-(2-hydroxypropan-2-yl)thiazole-5-sulfonimidamide], the IC50 under setting [1] was in the range of 1 to 5 µM. The same measure, in the same setting: the value for `CC1CCc2c1nc1c(c2NC(=O)N=S(N)(=O)c2ccn(C(F)F)n2)CCC1` (single isomer, unassigned) [Compound 184b, (S,S) or (S,R)-1-(difluoro-methyl)-N′-((3-methyl-1,2,3,5,67-hexahydro-dicyclopenta[b,e]pyridin-8-yl)carbamoyl)-1H-pyrazole-3-sulfonimidamide] was 5 to 30 µM.

As to `Cc1nc(C(C)(C)O)ccc1S(N)(=O)=NC(=O)Nc1c2c(nc3c1CCC3)CCC2` (single isomer, unassigned) [Compound 157a, (S) or (R)-N′-((1,2,3,5,6,7-hexahydrodicyclo-penta[b,e]pyridin-8-yl)carbamoyl)-6-(2-hydroxypropan-2-yl)-2-methylpyridine-3-sulfonimidamide], under setting [7], the IC50 is over 30 µM. Consider `CC(C)(O)c1ncc(S(N)(=O)=NC(=O)Nc2c3c(nc4c2CCC42CC2)CCC3)s1` (single isomer, unassigned) [Compound 136a, (S) or (R)-2-(2-hydroxy-propan-2-yl)-N′-((1′,5′,6′,7′-tetrahydro-2′H-spiro[cyclopropane-1,3′-dicyclopenta[b,e]pyridin]-8′-yl)carbamoyl)thiazole-5-sulfonimidamide], for which the IC50 under setting [1] lay in the range of 1 to 5 µM. For the molecule `CCc1ncc(S(N)(=O)=NC(=O)Nc2c3c(nc4c2CC[C@H]4C)CCC3)s1` (single isomer, unassigned) [Example 674, (R) or (S)-2-ethyl-N′-(((R)-3-methyl-1,2,3,5,6,7-hexahydrodicyclopenta[b,e]pyridin-8-yl)carbamoyl) thiazole-5-sulfonimidamide], the IC50 under setting [3] is 0.2 to 1 µM.

`CCc1c(CC(F)(F)F)nc2c(c1NC(=O)N=S(N)(=O)c1sc(C(C)(C)O)cc1F)CCC2` (single isomer, unassigned) [Example 640, (S) or (R)-N′-((3-ethyl-2-(2,2,2-trifluoroethyl)-6,7-dihydro-5H-cyclopenta[b]pyridin-4-yl)carbamoyl)-3-fluoro-5-(2-hydroxypropan-2-yl) thiophene-2-sulfonimidamide]: the IC50 under setting [3] lay in the range of 5 to 30 µM. Regarding `CC(C)n1nc(S(N)(=O)=NC(=O)Nc2c3c(nc4c2CCC42CC2)CCC3)cc1CO` (stereo not drawn) [Example 595, 5-(Hydroxymethyl)-1-isopropyl-N′-((1′,5′,6′,7′-tetrahydro-2′H-spiro[cyclopropane-1,3′-dicyclopenta[b,e]pyridin]-8′-yl)carbamoyl)-1H-pyrazole-3-sulfonimidamide], under setting [2], the IC50 fell in the range of 1 to 5 µM. With `CC(C)(O)c1cc(S(N)(=O)=NC(=O)Nc2c3c(nc4c2CCC4(C)C)CCC3)nn1-c1ccccc1` (stereo not drawn) [Compound 663, N′-((3,3-dimethyl-1,2,3,5,6,7-hexahydrodicyclopenta[b,e]pyridin-8-yl)carbamoyl)-5-(2-hydroxypropan-2-yl)-1-phenyl-1H-pyrazole-3-sulfonimidamide], the concentration for half-maximal inhibition (IC50) under setting [4] lay within 1 to 5 µM.
